What follows are compounds tested against T1, GPR35 (Homo sapiens, UniProt Q9HC97) (assay: cellular GPR35 phospho-ERK HTRF assay (inhibition of lodoxamide-induced phospho-ERK signal)). Conditions: GPR35-CHO-K1-mt aequorin-Gα16 cell line; agonist lodoxamide at EC80; read-out: Activity Group (IC50, inhibition of GPR35 agonist-induced phospho-ERK signal).
T1 construct: expressed in transfected cells; host or cells: CHO-K1 cells co-expressing mitochondrial aequorin and Gα16
T1 sequence (Q9HC97 whole entry): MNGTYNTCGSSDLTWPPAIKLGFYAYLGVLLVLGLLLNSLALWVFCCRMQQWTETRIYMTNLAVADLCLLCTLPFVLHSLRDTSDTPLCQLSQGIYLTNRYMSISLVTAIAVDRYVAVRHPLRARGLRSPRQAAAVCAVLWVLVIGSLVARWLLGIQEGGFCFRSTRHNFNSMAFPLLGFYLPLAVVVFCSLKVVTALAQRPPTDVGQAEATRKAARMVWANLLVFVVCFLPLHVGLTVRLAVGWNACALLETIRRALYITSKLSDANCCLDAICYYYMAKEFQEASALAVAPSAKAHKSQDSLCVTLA
Assay type: cell-based
Summary of the method: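 GPR35-CHO-K1-mt aequorin-Gα16 cells were stimulated with lodoxamide at its EC80. After lysis, phospho-ERK1/2 (Thr202/Tyr204) was read by HTRF sandwich with Eu-cryptate/d2 antibodies at 665 nm. IC50 is the modulator concentration giving 50% inhibition of the window between agonist-plus-vehicle and no-agonist controls.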
In the case of `CNc1ncc(-c2cccc(C(=O)Nc3ccc(OCCc4ccccc4)cc3)c2)cc1C(=O)O` [Example 34, 2-(Methylamino)-5-(3-((4-phenethoxyphenyl)carbamoyl)phenyl)nicotinic acid], the IC50 is reported as < 1000 nM.
An IC50 of 1000 to 10000 nM was found for `O=C(O)c1cnc(O)c(-c2cccc(C(=O)Nc3ccc(OCCc4ccccc4)cc3)c2)c1` [Example 66, 6-Hydroxy-5-[3-[[4-(2-phenylethoxy)phenyl]carbamoyl]phenyl]pyridine-3-carboxylic acid] in this work.
An IC50 of 1000 to 10000 nM was found for `Cc1ncc(-c2cccc(C(=O)Nc3ccc(COCc4ccccc4)cc3)c2F)cc1C(=O)O` [Example 86, 5-[3-[[4-(Benzyloxymethyl)phenyl]carbamoyl]-2-fluoro-phenyl]-2-methyl-pyridine-3-carboxylic acid] in this work.
`Cc1ncc(-c2cccc(C(=O)Nc3ccc(OCCc4ccccc4)cc3)c2)nc1C(=O)O` [Example 10, 3-Methyl-6-(3-((4-phenethoxyphenyl)carbamoyl)phenyl)pyrazine-2-carboxylic acid] was tested, and the IC50 was < 1000 nM.
An IC50 of 1000 to 10000 nM was found for `Cc1ncc(C(=O)O)cc1-c1cccc(C(=O)Nc2ccc(OCCc3ccccc3)cc2)c1` [Example 25, 6-Methyl-5-(3-((4-phenethoxyphenyl)carbamoyl)phenyl)nicotinic acid] in this work.

Reference: patent US20260216198A1, “GPR35 MODULATORS” (ThirtyFiveBio Limited, priority 2023, published 2026)
